This note sets out measurements from patent US12178809B2, “Pyridinyl sulfonamide derivatives, pharmaceutical compositions and uses thereof” (Boehringer Ingelheim International GmbH, priority 2018, dated 2024).

In test [1] the target is human AOC3 enzyme (Homo sapiens (Human), UniProt Q16853). Put plainly: AOC3 biochemical assay (MAO-Glo). An excerpt: The MAO-Glo™ Assay (commercially available from PROMEGA, #V1402) provides a sensitive method for the measurement of monoamine oxidase (MAO) activity (Valley, M. P. et al., 2006, Anal. Biochem. 359: 238-246) from a variety of tissues, biofluids or recombinant expressed or purified enzymes. As substrate a derivate of the beetle luciferin ((4S)-4,5-dihydro-2-(6-hydroxybenzothiazolyl)-4-thiazole-carboxylic acid) is used, which is oxidized at a primary amine moiety. After a spontaneous elimination and a catalyzed esterase reaction, the turnover of the luciferine by the luciferase is recorded as a signal of AOC3 activity.
An aliquot of 3 μL of the compound dilution is added to a 384 well plate (Optiplate, PS, flat bottom, white, PERKIN ELMER, #6007290) with a final DMSO concentration of 6.6%. Recombinant CHO cells, overexpressing the human (1500 cells/well), mouse (1000 cells/well) or rat (500 cells/well) AOC3 enzyme are diluted in reaction buffer and added in a volume of 15 μL to the wells. After incubation for 20 minutes at 37° C., 2 μL of MAO substrate (dissolved in DMSO at 16 mM, adjusted to assay concentration in reaction buffer to a final assay concentration of 20 μM) is added and further incubated for 60 minutes at 37° C. The turnover of the substrate is determined by the addition of 20 μL of the detection-mix which was generated by the addition of reconstitution buffer with esterase (PROMEGA, #V1402) to the luciferine detection reagent (PROMEGA, #V1402). After an incubation period of 20 minutes, the luminescent signal is measured with Envision 2104 Multilabel Reader (PERKIN ELMER).

In test [2] the target is AOC1 (Homo sapiens (Human), UniProt P19801). Description: AOC1 biochemical assay (Amplex Red). Here is the method: The Amplex® Red Assay (available from Thermo Fisher Scientific) provides a sensitive method for the detection of H2O2 generated during enzymatic reactions like the amine oxidation catalyzed by AOC1. The assay reagent is a colorless substrate (N-acetyl-3,7-dihydroxyphenoxazine) that reacts in a 1:1 stoichiometry with hydrogen peroxide (H2O2) to produce the fluorescent dye resorufin (7-hydroxyphenoxazin-3-one, excitation/emission maxima=570/585 nm).
An aliquot of 3 μL of the compound dilution is added to a 384 well plate (Optiplate, PS, flat bottom F, black, PERKIN ELMER, #6007270) in a DMSO concentration of 6.6%.
An AOC1 enzyme aliquot (#8297-AO-010, R&D Systems) is thawed on ice, diluted in reaction buffer and added in a volume of 7 μL to the wells to give a final assay concentration of 1 ng/well. After incubation of inhibitor and enzyme for 30 minutes at 37° C., the enzymatic reaction is started with the addition of 10 μL of Amplex® Red reaction mix (final assay concentration: 100 mM sodiumphosphate, 120 μM Amplex® Red reagent (#A22177 Molecular Probes), 1.5 U/mL Horseradish Peroxidase (#P8375 Sigma-Aldrich), 200 μM putrescine (#P7505 Sigma-Alrdich), 0.05% Pluronic F-127 (#P3000MP Sigma-Aldrich), pH 7.4, 37° C.).
After an incubation for 30 minutes at 37° C. the turnover of the substrate is determined directly (or after the addition of an excess of an amine-oxidase inhibitor) with a fluorescence reader (Ex 540 nm/Em 590 nm) like Envision 2104 Multilabel Reader (PERKIN ELMER).

The target of test [3] is AOC2 (Homo sapiens (Human), UniProt O75106). Description: AOC2 biochemical assay (Amplex Red). Here is the method:
An aliquot of 5 μL of the compound dilution is added to a 96 well plate (flat bottom F, black, GREINER bio-one, #655900) in a DMSO concentration of 2%. […] Cells are cultured for 3 days in EMEM culture medium containing 10% FCS (#04-00-1A, Biological Industries). After washing twice with ice cold PBS, cells are lysed by mechanic homogenation and cleared supernatants are shock frozen in liquid nitrogen and stored at -80° C. […] An Aliquot of 45 μL is added to the compound dilution and incubated for 30 min at 37° C. The enzymatic reaction is started with the addition of 50 μL of Amplex® Red reaction mix (final assay concentration: 100 mM sodiumphosphate, 120 μM Amplex® Red reagent (#A22177 Molecular Probes), 1.5 U/mL Horseradish Peroxidase (#P8375 Sigma-Aldrich), 2 mM phenylethylamine (#[…] Sigma-Aldrich), 0.05% Pluronic F-127 (#P3000MP Sigma-Aldrich), pH 7.4, 37° C.). The turnover per time of the substrate is determined directly with a fluorescence reader (Ex 540 nm/Em 590 nm) like Envision 2104 Multilabel Reader (PERKIN ELMER) for 60 min.

Counter-ions that a name gives are not always drawn. Like-named read-outs stand apart in the source and are kept apart here.

Chain of human AOC3 enzyme (Q16853 whole entry): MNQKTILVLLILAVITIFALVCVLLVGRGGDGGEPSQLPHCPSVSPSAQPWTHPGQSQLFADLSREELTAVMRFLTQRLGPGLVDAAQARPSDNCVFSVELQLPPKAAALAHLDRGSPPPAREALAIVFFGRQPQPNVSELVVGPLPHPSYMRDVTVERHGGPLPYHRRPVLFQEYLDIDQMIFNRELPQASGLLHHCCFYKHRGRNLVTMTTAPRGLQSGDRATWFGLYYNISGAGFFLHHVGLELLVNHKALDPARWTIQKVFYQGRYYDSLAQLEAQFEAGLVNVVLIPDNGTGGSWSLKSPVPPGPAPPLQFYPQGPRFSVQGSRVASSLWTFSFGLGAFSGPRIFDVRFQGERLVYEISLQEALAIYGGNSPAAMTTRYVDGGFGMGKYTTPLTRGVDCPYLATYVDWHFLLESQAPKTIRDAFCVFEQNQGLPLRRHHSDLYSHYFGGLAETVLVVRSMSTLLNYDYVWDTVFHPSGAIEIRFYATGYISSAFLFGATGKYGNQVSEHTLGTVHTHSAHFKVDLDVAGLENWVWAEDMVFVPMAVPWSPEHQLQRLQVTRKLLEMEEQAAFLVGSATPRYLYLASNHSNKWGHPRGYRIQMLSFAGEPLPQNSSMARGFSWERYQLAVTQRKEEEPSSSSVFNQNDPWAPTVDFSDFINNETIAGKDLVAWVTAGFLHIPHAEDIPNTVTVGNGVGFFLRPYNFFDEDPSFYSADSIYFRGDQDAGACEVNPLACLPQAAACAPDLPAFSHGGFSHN
Chain of AOC2 (O75106 whole entry): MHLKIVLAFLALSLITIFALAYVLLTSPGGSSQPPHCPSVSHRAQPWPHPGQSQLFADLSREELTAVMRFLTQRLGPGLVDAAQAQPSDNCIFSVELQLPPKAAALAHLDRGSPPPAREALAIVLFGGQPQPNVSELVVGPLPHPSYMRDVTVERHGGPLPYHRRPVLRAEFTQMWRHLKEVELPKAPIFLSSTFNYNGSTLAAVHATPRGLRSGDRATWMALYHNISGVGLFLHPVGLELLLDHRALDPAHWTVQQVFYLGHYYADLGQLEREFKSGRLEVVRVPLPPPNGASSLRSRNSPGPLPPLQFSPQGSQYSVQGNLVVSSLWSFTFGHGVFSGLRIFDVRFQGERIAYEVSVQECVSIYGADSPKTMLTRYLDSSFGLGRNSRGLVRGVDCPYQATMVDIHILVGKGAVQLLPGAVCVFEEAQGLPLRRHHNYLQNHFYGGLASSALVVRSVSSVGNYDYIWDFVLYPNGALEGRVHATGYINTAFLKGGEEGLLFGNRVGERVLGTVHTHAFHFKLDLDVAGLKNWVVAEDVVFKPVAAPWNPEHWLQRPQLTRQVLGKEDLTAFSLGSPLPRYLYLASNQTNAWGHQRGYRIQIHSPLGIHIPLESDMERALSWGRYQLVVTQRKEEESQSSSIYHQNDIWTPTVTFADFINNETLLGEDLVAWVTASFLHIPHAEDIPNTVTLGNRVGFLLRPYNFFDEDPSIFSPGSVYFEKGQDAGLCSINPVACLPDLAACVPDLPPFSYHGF
Chain of AOC1 (P19801 20-751): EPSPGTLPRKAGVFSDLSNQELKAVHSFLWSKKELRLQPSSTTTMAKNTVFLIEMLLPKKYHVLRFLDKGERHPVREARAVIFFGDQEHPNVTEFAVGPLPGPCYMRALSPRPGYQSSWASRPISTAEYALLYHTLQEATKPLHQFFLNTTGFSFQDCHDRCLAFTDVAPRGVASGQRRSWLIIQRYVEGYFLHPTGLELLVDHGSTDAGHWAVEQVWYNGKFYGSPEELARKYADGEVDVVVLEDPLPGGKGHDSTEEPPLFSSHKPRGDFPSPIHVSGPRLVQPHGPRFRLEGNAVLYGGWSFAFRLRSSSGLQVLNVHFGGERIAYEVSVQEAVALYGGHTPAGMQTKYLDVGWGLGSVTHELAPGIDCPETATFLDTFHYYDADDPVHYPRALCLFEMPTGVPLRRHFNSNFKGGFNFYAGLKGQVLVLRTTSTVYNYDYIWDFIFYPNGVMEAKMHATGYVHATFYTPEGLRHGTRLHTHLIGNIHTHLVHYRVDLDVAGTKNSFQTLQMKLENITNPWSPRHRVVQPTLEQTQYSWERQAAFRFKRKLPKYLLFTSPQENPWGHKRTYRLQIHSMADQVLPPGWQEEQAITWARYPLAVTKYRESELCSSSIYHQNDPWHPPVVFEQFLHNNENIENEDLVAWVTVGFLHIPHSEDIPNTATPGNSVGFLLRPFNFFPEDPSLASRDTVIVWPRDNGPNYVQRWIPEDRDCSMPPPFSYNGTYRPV

As for `CC1(C(=O)NC2CCOCC2)CCN(S(=O)(=O)c2ccc(OC/C(=C/F)CN)nc2)CC1` [Example 58, 1-[6-((E)-2-Aminomethyl-3-fluoro-allyloxy)-pyridine-3-sulfonyl]-4-methyl-piperidine-4-carboxylic acid (tetrahydropyran-4-yl)-amide trifluoroacetate], the half-maximal inhibitory concentration (IC50) in test [1] (read-out: AOC3 IC50) was 114 nM; in test [2] (read-out: AOC1 IC50), > 49900 nM; in test [3] (read-out: AOC2 IC50), 363 nM.
For the molecule `NC/C(=C\F)COc1ccc(S(=O)(=O)N2CC[C@@H](C(N)=O)C2)cn1` [Example 33], the IC50 in test [1] (read-out: AOC3 IC50) came to 15 nM; in test [2] (read-out: AOC1 IC50) it was 33000 nM; in test [3] (read-out: AOC2 IC50) it was 49 nM.
Turning to `CC(=O)NC1CCN(S(=O)(=O)c2ccc(OC/C(=C/F)CN)nc2)C1` (centres unmarked) [Example 23], the half-inhibitory concentration (IC50) in test [1] (read-out: AOC3 IC50) was 62 nM; in test [2] (read-out: AOC1 IC50), > 50000 nM; in test [3] (read-out: AOC2 IC50) it was 180 nM.
Turning to `NC/C(=C\F)COc1ccc(S(=O)(=O)N2CCC2)cn1` [Example 39], the 50% inhibitory concentration (IC50) in test [1] (read-out: AOC3 IC50) came to 19 nM; in test [2] (read-out: AOC1 IC50), 17000 nM; in test [3] (read-out: AOC2 IC50), 262 nM.
As for `NC/C(=C\F)COc1ccc(S(=O)(=O)N2CCC(CC(=O)O)CC2)cn1` [Example 54, trifluoroacetate], the IC50 is 308 nM in test [1] (read-out: AOC3 IC50), > 50000 nM in test [2] (read-out: AOC1 IC50) and 4 nM in test [3] (read-out: AOC2 IC50).
Consider `NC/C(=C\F)COc1ccc(S(=O)(=O)N2CC3CC3C2)cn1` (centres unmarked) [Example 41], for which the IC50 in test [1] (read-out: AOC3 IC50) amounted to 5 nM; in test [2] (read-out: AOC1 IC50), 25400 nM; in test [3] (read-out: AOC2 IC50), 123 nM.
Regarding `CCNC(=O)CC1CCN(S(=O)(=O)c2ccc(OC/C(=C/F)CN)nc2)CC1` [Example 19], the IC50 in test [1] (read-out: AOC3 IC50) is 32 nM; in test [2] (read-out: AOC1 IC50) it was > 50000 nM; in test [3] (read-out: AOC2 IC50) it was 214 nM.
In the same order, the values of `NC/C(=C\F)COc1ccc(S(=O)(=O)N2CCC(C(=O)N3CCC3)CC2)cn1` [Example 13] are 43 nM, > 50000 nM and 358 nM.
For the molecule `CCNC(=O)C1CCN(S(=O)(=O)c2ccc(OC/C(=C/F)CN)nc2)CC1` [Example 11], the concentration for half-maximal inhibition (IC50) in test [1] (read-out: AOC3 IC50) is 12 nM; in test [2] (read-out: AOC1 IC50) it was > 50000 nM; in test [3] (read-out: AOC2 IC50), 401 nM.
Turning to `CN(C)S(=O)(=O)c1ccc(OC/C(=C/F)CN)cc1` [Compound 14 of WO 2013/163675, reference compound], the IC50 in test [1] (comparison table, read-out: IC50 AOC3) is 8 nM; in test [2] (comparison table, read-out: IC50 AOC1), > 50000 nM; in test [3] (comparison table, read-out: IC50 AOC2), 1160 nM; in test [3] (read-out: IC50 AOC2), 1160 nM. In test [3], the “fold less active against AOC2 as compared to AOC3 (ratio IC50 AOC2/IC50 AOC3)” value is “ca. 145 fold”.
On to `CN(C)C(=O)C1CN(S(=O)(=O)c2ccc(OC/C(=C/F)CN)nc2)C1` [Example 28], for which the IC50 in test [1] (read-out: AOC3 IC50) was 42 nM; in test [2] (read-out: AOC1 IC50), > 49900 nM; in test [3] (read-out: AOC2 IC50) it was 158 nM.
Turning to `CN(C)C(=O)CC1CCN(S(=O)(=O)c2ccc(OC/C(=C/F)CN)nc2)CC1` [Example 16], the concentration for half-maximal inhibition (IC50) is 30 nM in test [1] (read-out: AOC3 IC50), > 50000 nM in test [2] (read-out: AOC1 IC50) and 262 nM in test [3] (read-out: AOC2 IC50).
With `NC/C(=C\F)COc1ccc(S(=O)(=O)N2CCC(C(N)=O)CC2)cn1` [Example 17], the 50% inhibitory concentration (IC50) in test [1] (read-out: AOC3 IC50) is 8 nM; in test [2] (read-out: AOC1 IC50), > 50000 nM; in test [3] (read-out: AOC2 IC50) it was 251 nM.
